What was measured:
[1] = tested on: tracheal ring chain of the guinea-pig; assay: bronchospasmolytic action on the tracheal ring chain of the guinea-pig in vitro (relaxation of stable tonic spontaneous contraction); format: cell-based; details: for EC50: Cavia porcellus, EC50 in mol/l, 50% of the maximum relaxation achievable with (-)isoprenaline 10^-6 mol/l, spontaneous contraction, 37° C.; for [EC50]theophylline / [EC50]substance: quotient of EC50 values, theophylline = 1
Procedure: The bronchospasmolytic action of the compounds on the tracheal ring chain of the guinea-pig was tested in vitro as follows: Four parallel tracheal ring chains, each consisting of 6 individual rings, of the guinea-pig (female and male, 430-600 g), in an organ bath [5 ml, Krebs-Henseleit solution with addition of phentolamine (10^-5 mol/l), 37° C., pretension of the organs 2 g, gassing with carbogen] develop a stable, tonic spontaneous contraction after about 20 to 30 minutes. Relaxation can be brought about on these permanently contracted organs under isometric measurement conditions by application of the test substance in a cumulatively semi-logarithmically increasing concentration (e.g. 1×10^-6 +2×10^-6 +7×10^-6 +2×10^-5etc. mol/l), a constant relaxation response being awaited after each individual dose of the test substance before the next higher concentration is applied. A complete dose/effect curve of the test substance is thus obtained over a period of 20 to 30 minutes. The particular relaxation is expressed as the percentage fraction of the maximum relaxation which can be achieved by addition of (-)isoprenaline (10^-6 mol/l).

[2] = tested on: acetylcholine-induced bronchospasm; assay: protective action against acetylcholine-induced bronchospasm on the conscious guinea-pig; format: in vivo; details: Cavia porcellus, 0.5 h; verum, oral, 100 μmol/kg, 30 minutes after administration; protected = latency period at least three times; read-out: Number of animals protected/number of animals used (converted)
Procedure: The bronchospasmolytic action was additionally tested on the model of "Protective action against acetylcholine-induced bronchospasm on the conscious guinea-pig":
Guinea-pigs (250-350 g) are exposed in a closed Plexiglas cylinder (volume 5 l) to an acetylcholine mist (0.06% in 0.9% sodium chloride solution; ultrasonic mister Heyer Use 77) twice before administration of the substance at an interval of 20 minutes, and 30 minutes after administration of the substance. The time from the start of misting to the onset of clear respiratory exertion (under certain circumstances hypoxic convulsions in the lateral position) is measured and defined as the latency period. A prolonging of the latency period after administration of the substance to at least three times the average latency period before administration of the substance is regarded as a protective action, and the number of protected animals in the group is stated. The test substances are administered orally by means of a stomach tube (dose 100 μmol/kg, volume 1 ml/kg, suspending agent 4% Methocel suspension in 0.9% sodium chloride solution).
The test substance is administered perorally by means of a stomach tube (standard dose 100 μmol, volume 1 ml 4% Methocel suspension in 0.9% sodium chloride solution/kg). After 30 minutes, the animals are exposed to the acetylcholine mist again and the latency periods are measured. Prolonging of the latency period to at least three times the length is regarded as a protective action.

[3] = tested on: PDE IV; assay: inhibition of PDE IV from human neutrophilic polymorphonuclear cells (PMNs); format: biochemical; details: for [IC50]theophylline / [IC50]substance: PDE IV human PMNs, quotient of IC50 values, theophylline = 1; for -log[IC50] PDE IV PNMs: human neutrophilic polymorphonuclear cells, cAMP 0.5 μmol/l, 37° C., 20 minutes
Text: (§1) The inhibition of phosphodiesterases of classes III (PDE III=high-affinity cAMP-PDE which can be inhibited by cGMP) and IV (PDE IV=high-affinity cAMP-PDE which cannot be inhibited by cGMP, Rolipram-sensitive) is regarded as being particularly conclusive for a bronchospasmolytic and/or antiinflammatory action which may be expected [H. Hidaka et al., Adv. Cycl. Nucl. Res. 13, 145 (1984); Tips 5, 237 (1984); R. Weishaar et al., J. Med. Chem. 28, 537 (1985); S. A. Harrison et al., Molec. Pharmac. 29, 506 (1986); J. Klein-Tebbe et al., Allergologie 12, 12 (1989); C. Schudt et al., Allergologie 12, 12 (1989)].
(§2) The PDE inhibition of the compounds according to the invention was therefore determined on a PDE III isolated from human platelets and PDE IV isolated from human neutrophilic polymorphonuclear cells (PMNs) and from the canine trachea. The phosphodiesterases III and IV are isolated by chromatography by the method of Polson et al., Biochem. Pharmacol. 31, 3403-3406 (1982).
(§3) The substances are dissolved in DMSO and diluted further. From a series of solutions diluted up to a hundred-fold, 2.1 μl portions are taken and 212 μl reaction mixture are added. The reaction mixture contains Hepes (100 mmol/l), DTE (5 mmol/l), MgCl2 (5 mmol/l), CaCl2 (10 μmol/l), BSA fraction V 0.5 mg/ml, cAMP 0.5 μmol/l, 2,8-^3 H-cAMP 250,000 cpm/ml (0.3 μCi/ml, s.a. 33.5 μCi/mmol) and SV (snake venom) (25 μg/212 μl test batch).
(§4) The reaction is started by addition of 10 μl PDE to the reaction mixture and to the substance batch. The mixtures are then incubated at 37° C. for 20 minutes. The reaction is stopped by heating at 95° C. for 45 seconds. After the samples have cooled, the SV solution is added, the 5-AMP formed being cleaved. After incubation for 30 minutes at 37° C., this reaction is stopped by addition of 1 ml anion exchanger suspension. The cAMP which remains is thereby bonded. The adenosine formed remains in the supernatant after centrifugation and can be measured in an aliquot by the radioactivity contained therein.

[4] = target: T1, PDE III (Homo sapiens, UniProt Q14432); assay: inhibition of PDE III isolated from human platelets; format: biochemical; details: for [IC50]theophylline / [IC50]substance: PDE III, quotient of IC50 values, theophylline = 1; for IC50: human platelets, cAMP 0.5 μmol/l, 37° C., 20 minutes, read-out: -log[IC50] PDE III (converted)
T1 construct: PDE III isolated from human platelets; from tissue; host or cells: human platelets
T1 sequence (Q14432 whole entry): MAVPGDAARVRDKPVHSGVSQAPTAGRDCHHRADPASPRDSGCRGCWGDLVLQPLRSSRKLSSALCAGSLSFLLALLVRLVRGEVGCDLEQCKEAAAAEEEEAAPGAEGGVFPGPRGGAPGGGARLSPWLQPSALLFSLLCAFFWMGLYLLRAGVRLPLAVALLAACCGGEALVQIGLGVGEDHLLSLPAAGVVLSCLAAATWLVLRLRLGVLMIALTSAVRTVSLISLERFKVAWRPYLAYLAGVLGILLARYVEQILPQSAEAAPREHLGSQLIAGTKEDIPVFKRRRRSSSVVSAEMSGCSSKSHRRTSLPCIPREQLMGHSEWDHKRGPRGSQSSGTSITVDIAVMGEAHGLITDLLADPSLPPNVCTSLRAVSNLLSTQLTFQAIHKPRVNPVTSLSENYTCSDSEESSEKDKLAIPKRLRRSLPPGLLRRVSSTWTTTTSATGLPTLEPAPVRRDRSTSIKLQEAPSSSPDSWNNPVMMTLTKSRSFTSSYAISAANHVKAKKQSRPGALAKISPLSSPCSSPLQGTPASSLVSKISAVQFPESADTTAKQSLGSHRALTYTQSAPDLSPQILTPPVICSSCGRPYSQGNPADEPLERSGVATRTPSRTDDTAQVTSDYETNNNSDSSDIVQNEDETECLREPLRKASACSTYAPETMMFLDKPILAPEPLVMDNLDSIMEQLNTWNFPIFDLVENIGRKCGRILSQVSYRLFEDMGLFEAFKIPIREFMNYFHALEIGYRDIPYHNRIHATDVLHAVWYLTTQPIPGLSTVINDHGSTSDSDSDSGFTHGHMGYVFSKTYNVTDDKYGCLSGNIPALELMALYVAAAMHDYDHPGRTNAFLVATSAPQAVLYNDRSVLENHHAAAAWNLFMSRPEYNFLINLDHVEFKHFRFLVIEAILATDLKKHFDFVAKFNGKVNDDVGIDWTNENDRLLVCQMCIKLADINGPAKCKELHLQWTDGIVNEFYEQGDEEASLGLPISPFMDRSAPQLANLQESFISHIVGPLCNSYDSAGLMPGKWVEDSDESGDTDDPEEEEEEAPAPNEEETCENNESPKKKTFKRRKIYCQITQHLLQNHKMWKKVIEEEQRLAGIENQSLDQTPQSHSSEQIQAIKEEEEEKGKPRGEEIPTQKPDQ
Text: as §1, §2, §3, §4

[5] = tested on: PDE IV; assay: inhibition of PDE IV from the canine trachea; format: biochemical; details: for [IC50]theophylline / [IC50]substance: PDE IV canine trachea, quotient of IC50 values, theophylline = 1; for -log[IC50] PDE IV canine trachea: cAMP 0.5 μmol/l, 37° C., 20 minutes
Text: as §1, §2, §3, §4

Compound	EC50 [1]	[EC50]theophylline / [EC50]substance [1]	responders at 100 µmol/kg [2]	[IC50]theophylline / [IC50]substance [3]	-log[IC50] PDE IV PNMs [3]	[IC50]theophylline / [IC50]substance [4]	IC50 [4]	[IC50]theophylline / [IC50]substance [5]	-log[IC50] PDE IV canine trachea [5]
N#CNc1ccc(-c2ccc(OC(F)F)c(OCC3CC3)c2)nn1 [Compound 18, 3-Cyanamino-6-(3-cyclopropylmethoxy-4-difluoromethoxyphenyl)pyridazine]	562 nM	240	50%	759	6.64	–	–	–	–
COc1cc(-c2ccc(NC#N)nn2)ccc1OCC(C)C [Compound 5, 3-Cyanamino-6-[3-methoxy-4-(2-methylpropoxy)phenyl]pyridazine]	3550 nM	38.1	–	–	–	–	–	–	–
CCOc1cc(-c2ccc(NC#N)nn2)ccc1OC [Compound 2, 3-Cyanamino-6-(3-ethoxy-4-methoxyphenyl)pyridazine]	3020 nM	44.7	–	–	–	15.5	10500 nM	95.6	5.79
CCOc1ccc(-c2ccc(NC#N)nn2)cc1OC(F)F [Compound 14, 3-Cyanamino-6-(3-difluoromethoxy-4-ethoxyphenyl)pyridazine]	2040 nM	66.1	–	85.1	5.69	–	–	–	–
CCOc1ccc(-c2ccc(NC#N)nn2)cc1OC [Compound 7, 3-Cyanamino-6-(4-ethoxy-3-methoxyphenyl)pyridazine]	6460 nM	20.9	–	–	–	18.2	8910 nM	32.4	5.32
COc1ccc(-c2ccc(NC#N)nn2)cc1OC [Compound 10, 3-Cyanamino-6-(3,4-dimethoxyphenyl)pyridazine]	7080 nM	19.1	–	–	–	15.1	10700 nM	74.1	5.68
CCCOc1ccc(-c2ccc(NC#N)nn2)cc1OC [Compound 1, 3-Cyanamino-6-(3-methoxy-4-n-propoxyphenyl)pyridazine]	5620 nM	24.0	–	–	–	–	–	–	–
COc1cc(-c2ccc(NC#N)nn2)ccc1OC(C)C [Compound 6, 3-Cyanamino-6-[3-methoxy-4-(1-methylethoxy)phenyl]pyridazine]	8130 nM	16.6	–	–	–	25.7	6310 nM	–	–
N#CNc1ccc(-c2ccc(OCC3CC3)c(OC(F)F)c2)nn1 [Compound 21, 3-Cyanamino-6-(4-cyclopropylmethoxy-3-difluoromethoxyphenyl)pyridazine]	1000 nM	135	–	–	–	–	–	–	–
N#CNc1ccc(-c2ccc(OC(F)F)c(OCC(F)(F)F)c2)nn1 [Compound 20, 3-Cyanamino-6-[4-difluoromethoxy-3-(2,2,2-trifluoroethoxy)phenyl] pyridazine]	2290 nM	58.9	55%	148	5.93	–	–	–	–
CC(C)Oc1cc(-c2ccc(NC#N)nn2)ccc1OC(F)F [Compound 16, 3-Cyanamino-6-[4-difluoromethoxy-3-(1-methylethoxy)phenyl]pyridazine]	661 nM	204	50%	550	6.50	–	–	–	–
COc1ccc(-c2ccc(NC#N)nn2)cc1OC1CCCC1 [Compound 11, 3-Cyanamino-6-(3-cyclopentyloxy-4-methoxyphenyl)pyridazine]	562 nM	240	–	288	6.22	–	–	120	5.89
COc1cc(-c2ccc(NC#N)nn2)ccc1OC(F)F [Compound 8, 3-Cyanamino-6-(4-difluoromethoxy-3-methoxyphenyl)pyridazine]	1860 nM	72.5	–	–	–	–	–	70.8	5.66
COc1ccc(-c2ccc(NC#N)nn2)cc1OCC1CCC1 [Compound 15, 3-Cyanamino-6-(3-cyclobutylmethoxy-4-methoxyphenyl)pyridazine]	912 nM	148	–	–	–	–	–	77.7	5.70
COc1ccc(-c2ccc(NC#N)nn2)cc1OC(F)F [Compound 9, 3-Cyanamino-6-(3-difluoromethoxy-4-methoxyphenyl)pyridazine]	2340 nM	57.6	–	–	–	13.2	12300 nM	69.2	5.65
N#CNc1ccc(-c2ccc(OC(F)F)c(OC3CCCC3)c2)nn1 [Compound 17, 3-Cyanamino-6-(3-cyclopentyloxy-4-difluoromethoxyphenyl)pyridazine]	759 nM	178	–	513	6.47	–	–	–	–
CC(C)COc1cc(-c2ccc(NC#N)nn2)ccc1OC(F)F [Compound 19, 3-Cyanamino-6-[4-difluoromethoxy-3-(2-methylpropoxy)phenyl]pyridazine]	1410 nM	95.6	–	525	6.48	–	–	–	–

From patent US5236918A, “6-aryl-3-cyanaminopyridazines, their preparation and use and medicaments containing them” (BYK Gulden Lomberg Chemische Fabrik GmbH, priority 1989, dated 1993)
